Data set [1] addresses T1, TACE (crude extracted protein from membrane fraction of THP-1 cells) (Homo sapiens, UniProt P78536).
T1 construct: The supernatant was collected, which was provided for use as a TACE crude extract; endogenous in cells; host or cells: THP-1 cells stimulated with LPS, silica and hydroxyurea; membrane fraction solubilised with 1% Triton X-100
Briefly: In vitro TACE inhibitory activity (fluorogenic peptide substrate). The format is biochemical. The settings on record: crude TACE 10 μg/mL, substrate 20 μM, room temperature, at least 4 hours. The method, then:
Test 1 (In Vitro TACE Inhibitory Activity)
(1) Crude Extraction of TACE from THP-1 Cell Membrane
To THP-1 cells (cell density: 2×10^6/mL) suspended in RPMI 1640 medium containing 1% FBS were added LPS (E. coli 055:B55, final concentration: 1 pg/mL), silica (0.014 μm, final concentration: 50 μg/mL) and hydroxyurea (final concenration: 2 mM), followed by cultivation at 37° C. for 16 hours under 5%-CO2 conditions. The resulting cells were then washed once with RPMI 1640 medium free of FBS. The cells were suspended in 3 times the pellet volume of Solution A (10 mM sodium phosphate (pH 7.4), 1 mM MgCl2, 30 mM NaCl, 0.02% NaN3, 5 μM PMSF (phenyl methyl sulfonyl fluoride)). The cells were ground by a Polytron homogenizer (5 sec×5 times, ice cooling for 1 to 2 minutes each time). The homogenate solution was stacked over 41% sucrose-Solution A, followed by centrifugation (150,000 g×1 hour). After centrifugation, the intermediate layer was collected and diluted with 4 volumes of Solution A, followed by centrifugation (150,000 g×20 min). A sufficient amount of a solubilizing solution (1%-Triton X-100-A solution) was added (protein concentration: 1 mg/mL) and the mixture was stirred (4° C.×1 hour). Stirring was followed by centrifugation (100,000 g×30 min, 4° C.). The supernatant was collected, which was provided for use as a TACE crude extract.
(2) Measurement of TACE Inhibitory Activity
TACE (crude extracted protein from membrane fraction of THP-1 cells, final concentration: 10 μg/mL), each of test compounds (DMSO final concentration: 1%) shown in Table 1 and an incubate solution (50 mM Tris-HCl (pH 7.4), 5 mM CaCl2, 0.002% NaN3, 0.002% Brij 35) was added to a 96-well black plate. After pre-incubation at room temperature for 30 minutes, a substrate (N-methylanthranilyl-LAQAVRSK(DNP)rr-NH2: product of PEPTIDE INSTITUTE, INC., final concentration: 20 μM) was added, followed by incubation at room temperature for at least 4 hours. The fluorescence intensity was measured using POLAR STAR (Ex: 340 nm, Em: 430 nm) and from it, TACE inhibitory activity (IC50 value) was calculated.

A further data set has as its target T2, MMP-1 (Homo sapiens, UniProt P03956).
T2 construct: purchased Cosmo Bio Co
T2 sequence (P03956 100-469): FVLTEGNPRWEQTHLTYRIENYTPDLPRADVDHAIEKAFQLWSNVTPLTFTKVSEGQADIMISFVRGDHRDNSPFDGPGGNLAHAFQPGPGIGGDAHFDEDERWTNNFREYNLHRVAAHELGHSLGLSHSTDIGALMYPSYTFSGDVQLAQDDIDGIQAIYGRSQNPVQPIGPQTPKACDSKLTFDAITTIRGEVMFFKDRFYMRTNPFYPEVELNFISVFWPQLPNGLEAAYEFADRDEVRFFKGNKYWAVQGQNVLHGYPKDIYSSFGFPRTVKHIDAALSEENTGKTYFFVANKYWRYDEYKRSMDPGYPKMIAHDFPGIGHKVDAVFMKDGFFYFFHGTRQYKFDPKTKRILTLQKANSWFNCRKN
Briefly: Measurement of MMP-1 inhibitory activity. Format: biochemical. The settings on record: MMP-1 (Cosmo Bio), fluorogenic substrate. The method, then:
Test 2 (Measurement of MMP-1 Inhibitory Activity)
MMP-1 inhibitory activity (IC50 value) was measured in accordance with the above-described measuring method of TACE inhibitory activity by using MMP-1 (product of Cosmo Bio Co.) and, as a substrate, 7-methoxycoumarin-4-yl-acetyl-PLGL-[N^3-(2,4-dinitrophenyl)2,3-diaminopropionyl]-AR—NH2 (product of Peptide Institute Inc.). The fluorescence intensity was measured using POLAR STAR (Ex: 340 nm, Em: 405 nm).

Data set [2] has as its system secretion of TNF-α, THP-1 cells. Briefly: Inhibitory activity against secretion of TNF-α in LPS-stimulated THP-1 cells (ELISA). Format: cell-based. The settings on record: Homo sapiens, LPS 100 ng/mL, 37° C., 4 hours, ELISA of supernatant. The protocol:
Test 3 (Measurement of Inhibitory Activity Against on of TNF-α)
To THP-1 cells (5×10^5 mL) suspended in RPMI 1640 medium containing 10% FBS were added LPS (100 ng/mL) and a medicament of various concentrations (DMSO final concentration: 0.1%), followed by incubation at 37° C. for 4 hours under 5%-CO2 conditions. The TNF-α in the cultured supernatant was analyzed by ELISA, whereby inhibitory activity (IC50) against secretion of TNF-α was calculated.
Background: ELISA stands for enzyme-linked immunosorbent assay.

Broadly, the melting point is the temperature, or range, at which the solid turns liquid. Usually IC50 stands for the midpoint of a concentration-inhibition curve. A low value points to higher potency.

Each structure is given as a SMILES string.

T1 sequence (P78536 215-824): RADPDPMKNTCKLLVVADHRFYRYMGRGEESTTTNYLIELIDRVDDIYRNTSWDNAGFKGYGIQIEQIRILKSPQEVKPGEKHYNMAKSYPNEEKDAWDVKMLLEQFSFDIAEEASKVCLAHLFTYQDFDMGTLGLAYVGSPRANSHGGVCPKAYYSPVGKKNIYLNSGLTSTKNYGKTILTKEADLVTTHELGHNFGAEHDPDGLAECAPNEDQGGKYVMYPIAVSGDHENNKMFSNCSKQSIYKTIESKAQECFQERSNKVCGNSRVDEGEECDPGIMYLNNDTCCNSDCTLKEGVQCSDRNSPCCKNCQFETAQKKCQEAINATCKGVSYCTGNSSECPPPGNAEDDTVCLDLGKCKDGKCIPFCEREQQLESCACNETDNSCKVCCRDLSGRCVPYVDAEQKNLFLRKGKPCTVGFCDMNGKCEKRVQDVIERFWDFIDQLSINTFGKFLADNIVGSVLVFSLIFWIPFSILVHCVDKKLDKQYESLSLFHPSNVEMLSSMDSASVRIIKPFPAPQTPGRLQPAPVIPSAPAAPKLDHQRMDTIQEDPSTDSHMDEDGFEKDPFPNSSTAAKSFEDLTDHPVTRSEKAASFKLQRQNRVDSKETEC

On to `COc1ccc(NC(=O)Nc2cccc(/C(=C\C(=O)NO)c3ccccc3)c2)cc1` [Compound 57, Z-3-[3-[3-(4-Methoxyphenyl)ureido]phenyl]-3-phenylpropenohydroxamic Acid], for which the melting point lay within 190 to 192 °C.

On to `COc1ccc(NC(=S)Nc2cccc(/C(=C\C(=O)NO)c3ccccc3)c2)cc1` [Compound 58, Z-3-[3-[3-(4-Methoxyphenyl)thioureido]phenyl]-3-phenylpropenohydroxamic Acid], for which the melting point fell in the range of 176 to 179 °C. Turning to `COc1ccc(S(=O)(=O)N(C)c2cccc(/C(=C\C(=O)NO)c3ccccc3)c2)cc1` [Compound 62, Z-3-[3-[N-(4-Methoxybenzenesulfonyl)-N-methylamino]phenyl]-3-phenylpropenohydroxamic Acid], the IC50 in data set [1] was 8.6 nM; against MMP-1, more than 10 µM. For `COc1ccc(S(=O)(=O)N(c2cccc(/C(=C\C(=O)NO)c3ccccc3)c2)C(C)C)cc1` [Compound 63, Z-3-[3-[N-(4-Methoxybenzenesulfonyl)-N-isopropylamino]phenyl]-3-phenylpropenohydroxamic Acid], in that order: 8.6 nM and more than 10 µM.

Compound `O=C(/C=C(/c1ccccc1)c1cccc(N(Cc2ccccc2)S(=O)(=O)c2ccc3ccccc3c2)c1)NO` [Compound 65, Z-3-[3-[N-(2-Naphthalenesulfonyl)-N-benzylamino]phenyl]-3-phenylpropenohydroxamic Acid] had a melting point of 88 to 90 °C. On the same count and under the same terms, as for `O=C(/C=C(/c1ccccc1)c1cccc(N(CCc2ccccc2)S(=O)(=O)c2ccc3ccccc3c2)c1)NO` [Compound 66, Z-3-[3-[N-(2-Naphthalenesulfonyl)-N-(2-phenylethyl)amino]phenyl]-3-phenylpropenohydroxamic Acid], the figure is 127 to 129 °C; as for `O=C(/C=C(/c1ccccc1)c1cccc(N(Cc2cccnc2)S(=O)(=O)c2ccc3ccccc3c2)c1)NO` [Compound 67, Z-3-[3-[N-(2-Naphthalenesulfonyl)-N-(3-pyridylmethyl)amino]phenyl]-3-phenylpropenohydroxamic Acid], 168 to 170 °C. `CN(c1cccc(/C(=C\C(=O)NO)c2ccccc2)c1)S(=O)(=O)c1ccc([N+](=O)[O-])cc1` [Compound 68, Z-3-[3-[N-(4-Nitrobenzenesulfonyl)-N-methylamino]phenyl]-3-phenylpropenohydroxamic Acid]: the melting point lay in the range of 153 to 155 °C. Inhibition in data set [1] was half-maximal at 35 nM (IC50). This compound showed a half-inhibitory concentration (IC50) against MMP-1 of more than 10 µM. Consider `CN(c1cccc(/C(=C\C(=O)NO)c2ccccc2)c1)S(=O)(=O)c1cccc2cccnc12` [Compound 73, Z-3-[3-[N-(8-Quinolinesulfonyl)-N-methylamino]phenyl]-3-phenylpropenohydroxamic Acid], for which the concentration for half-maximal inhibition (IC50) in data set [1] was 29 nM; at MMP-1, more than 10 µM. `CN(C)c1cccc2c(S(=O)(=O)N(C)c3cccc(/C(=C\C(=O)NO)c4ccccc4)c3)cccc12` [Compound 74, Z-3-[3-[N-(5-(Dimethylamino)-1-naphthalenesulfonyl)-N-methylamino]phenyl]-3-phenylpropenohydroxamic acid] gave a melting point of 96 to 99 °C. Consider `COc1ccc(S(=O)(=O)N(C)c2cccc(/C(=C\C(=O)NO)c3ccccc3)c2)cc1OC` [Compound 75, Z-3-[3-[N-(3,4-Dimethoxybenzenesulfonyl)-N-methylamino]phenyl]-3-phenylpropenohydroxamic acid], for which the melting point lay in the range of 98 to 101 °C. Besides, in data set [1], the IC50 was determined as 13 nM. The half-inhibitory concentration (IC50) against MMP-1 was more than 10 µM. This compound also showed a half-inhibitory concentration (IC50) in data set [2] of 6.4 µM. Compound `COc1ccc(OC)c(S(=O)(=O)N(C)c2cccc(/C(=C\C(=O)NO)c3ccccc3)c2)c1` [Compound 76, Z-3-[3-[N-(2,5-Dimethoxybenzenesulfonyl)-N-methylamino]phenyl]-3-phenylpropenohydroxamic acid] showed a melting point of 151 to 153 °C. Take `COc1ccc(S(=O)(=O)N(c2cccc(/C(=C\C(=O)NO)c3cccnc3)c2)C(C)C)cc1` [Compound 88, E-3-[3-[N-(4-Methoxybenzenesulfonyl)-N-isopropylamino]phenyl]-3-(3-pyridyl)propenohydroxamic acid]: the melting point is 158 to 160 °C. The concentration for half-maximal inhibition (IC50) in data set [1] worked out at 6.4 nM. Moreover, at MMP-1, the half-inhibitory concentration (IC50) is more than 10 µM. The compound further registered an IC50 in data set [2] of 2.8 µM.

As for `COc1ccc(S(=O)(=O)N(C)c2cccc(/C(=C\C(=O)NO)c3cccnc3)c2)cc1` [Compound 89, E-3-[3-[N-(4-Methoxybenzenesulfonyl)-N-methylamino]phenyl]-3-(3-pyridyl)propenohydroxamic Acid], the IC50 is 7 nM in data set [1], more than 10 µM at MMP-1 and 4.1 µM in data set [2].

On to `COc1ccc(S(=O)(=O)N(c2cccc(/C(=C\C(=O)NO)c3ccc[n+]([O-])c3)c2)C(C)C)cc1` [Compound 93, E-3-[3-[N-(4-methoxybenzenesulfonyl)-N-isopropylamino]phenyl]-3-(3-pyridyl N-oxide)propenohydroxamic Acid], for which the figures for the IC50 (in data set [1]; against MMP-1; in data set [2]) were 13 nM, more than 10 µM and 5.5 µM, respectively. Consider `COc1ccc(S(=O)(=O)N(C)c2cccc(/C(=C\C(=O)NO)c3ccc[n+]([O-])c3)c2)cc1` [Compound 94, E-3-[3-[N-(4-Methoxybenzenesulfonyl)-N-methylamino]phenyl]-3-(3-pyridyl N-oxide)propenohydroxamic Acid], for which the IC50 was 13 nM in data set [1] and more than 10 µM against MMP-1.

The compound `COc1ccc(S(=O)(=O)N(c2cccc(/C(=C/C(=O)NO)c3cccnc3)c2)C(C)C)cc1` [Compound 114, Z-3-[3-[N-(4-Methoxybenzenesulfonyl)-N-isopropylamino]phenyl]-3-(3-pyridyl)propenohydroxamic acid] returned a melting point of 195 to 197 °C. On the same count and under the same terms, as for `CCCN(c1cccc(/C(=C\C(=O)NO)c2cccnc2)c1)S(=O)(=O)c1ccc(OC)cc1` [Compound 115, E-3-[3-[N-(4-Methoxybenzenesulfonyl)-N-propylamino]phenyl]-3-(3-pyridyl)propenohydroxamic Acid], the figure is 151 to 153 °C.

(Values after patent publication US20040029928A1, “Novel propenohydroxamic acid derivatives” (priority 2000, published 2004).)
